Data taken from patent US10292412B2, “High solubility natural sweetener compositions” (KRAFT FOODS GLOBAL BRANDS LLC, priority 2012, dated 2019).

Test: Example 2: solubility of rebaudioside A in liquid concentrates with varying water, acid and alcohol
Assay type: physicochemical
Design: scale not given here
Description: Liquid concentrate formulations were prepared including varying levels of rebaudioside A, water, alcohol, and acid. The solubility was measured at various concentrations of each of the components and the results are included in the tables below: […]

C=C1C[C@@]23CC[C@H]4[C@@](C)(CCC[C@@]4(C)C(=O)O[C@@H]4O[C@H](CO)[C@@H](O)[C@H](O)[C@H]4O)[C@@H]2CC[C@]1(O[C@@H]1O[C@H](CO)[C@@H](O)[C@H](O[C@@H]2O[C@H](CO)[C@@H](O)[C@H](O)[C@H]2O)[C@H]1O[C@@H]1O[C@H](CO)[C@@H](O)[C@H](O)[C@H]1O)C3 [Reb A, rebaudioside A]
Response 1 Solubility (Water/Citric Acid/Ethanol (190 Proof)/RebA 0.00/0/92.44/7.5600 ml): 5
Response 1 Solubility (Water/Citric Acid/Ethanol (190 Proof)/RebA 0.00/21.92/77.48/0.6048 ml): 1
Response 1 Solubility (Water/Citric Acid/Ethanol (190 Proof)/RebA 39.71/32.88/19.85/7.5600 ml): 1
Response 1 Solubility (Water/Citric Acid/Ethanol (190 Proof)/RebA 47.96/0/47.96/4.0824 ml): 1
Response 1 Solubility (Water/Citric Acid/Ethanol (190 Proof)/RebA 59.56/32.88/0.00/7.5600 ml): 2
Response 1 Solubility (Water/Citric Acid/Propylene Glycol/RebA 0.00/0/92.44/7.5600 ml): Insoluble
Response 1 Solubility (Water/Citric Acid/Propylene Glycol/RebA 0.00/0/99.40/0.6048 ml): 1
Response 1 Solubility (Water/Citric Acid/Propylene Glycol/RebA 0.00/21.92/77.48/0.6048 ml): Insoluble
Response 1 Solubility (Water/Citric Acid/Propylene Glycol/RebA 33.13/0/66.26/0.6048 ml): 1
Response 1 Solubility (Water/Citric Acid/Propylene Glycol/RebA 33.13/10.96/55.30/0.6048 ml): 1
Response 1 Solubility (Water/Citric Acid/Propylene Glycol/RebA 39.71/32.88/19.85/7.5600 ml): Insoluble
Response 1 Solubility (Water/Citric Acid/Propylene Glycol/RebA 47.96/0/47.96/4.0824 ml): 2
Response 1 Solubility (Water/Citric Acid/Propylene Glycol/RebA 49.65/24.66/19.87/5.8212 ml): 2
Response 1 Solubility (Water/Citric Acid/Propylene Glycol/RebA 55.30/10.96/33.13/0.6048 ml): 1
Response 1 Solubility (Water/Citric Acid/Propylene Glycol/RebA 59.56/32.88/0.00/7.5600 ml): 2
Response 1 Solubility (Water/Citric Acid/Propylene Glycol/RebA 59.61/16.44/19.87/4.0824 ml): 2
Response 1 Solubility (Water/Citric Acid/Propylene Glycol/RebA 66.26/0/33.13/0.6048 ml): 1
Response 1 Solubility (Water/Citric Acid/Propylene Glycol/RebA 66.52/32.88/0.00/0.6048 ml): 1
Response 1 Solubility (Water/Citric Acid/Propylene Glycol/RebA 69.57/8.22/19.87/2.3436 ml): 3
Response 1 Solubility (Water/Citric Acid/Propylene Glycol/RebA 79.48/16.44/0.00/4.0824 ml): 3
Response 1 Solubility (Water/Citric Acid/Propylene Glycol/RebA 92.44/0/0.00/7.5600 ml): 5
Response 1 Solubility (Water/Citric Acid/Propylene Glycol/RebA 99.40/0/0.00/0.6048 ml): 3
Response 1 Solubility (Water/Malic Acid/Ethanol (200 Proof)/RebA 0.00/0/92.44/7.5600 ml): Insoluble
Response 1 Solubility (Water/Malic Acid/Ethanol (200 Proof)/RebA 0.00/0/99.40/0.6048 ml): Insoluble
Response 1 Solubility (Water/Malic Acid/Ethanol (200 Proof)/RebA 0.00/10.96/88.44/0.6048 ml): 5
Response 1 Solubility (Water/Malic Acid/Ethanol (200 Proof)/RebA 55.30/10.96/33.13/0.6048 ml): 1
Response 1 Solubility (Water/Phosphoric Acid/Ethanol (190 Proof)/RebA 0.00/0.00/92.44/7.56 ml): Insoluble
Response 1 Solubility (Water/Phosphoric Acid/Ethanol (190 Proof)/RebA 0.00/0.00/99.40/0.60 ml): Insoluble
Response 1 Solubility (Water/Phosphoric Acid/Ethanol (190 Proof)/RebA 0.00/30.81/61.63/7.56 ml): Insoluble
Response 1 Solubility (Water/Phosphoric Acid/Ethanol (190 Proof)/RebA 0.00/33.13/66.26/0.60 ml): 1
Response 1 Solubility (Water/Phosphoric Acid/Ethanol (190 Proof)/RebA 0.00/47.96/47.96/4.08 ml): Insoluble
Response 1 Solubility (Water/Phosphoric Acid/Ethanol (190 Proof)/RebA 0.00/66.26/33.13/0.60 ml): 1
Response 1 Solubility (Water/Phosphoric Acid/Ethanol (190 Proof)/RebA 0.00/92.44/0.00/7.56 ml): Insoluble
Response 1 Solubility (Water/Phosphoric Acid/Ethanol (190 Proof)/RebA 0.00/99.40/0.00/0.60 ml): Insoluble
Response 1 Solubility (Water/Phosphoric Acid/Ethanol (190 Proof)/RebA 15.99/15.99/62.21/5.82 ml): 2
Response 1 Solubility (Water/Phosphoric Acid/Ethanol (190 Proof)/RebA 15.99/39.10/39.10/5.82 ml): 2
Response 1 Solubility (Water/Phosphoric Acid/Ethanol (190 Proof)/RebA 15.99/62.21/15.99/5.82 ml): Insoluble
Response 1 Solubility (Water/Phosphoric Acid/Ethanol (190 Proof)/RebA 30.81/61.63/0.00/7.56 ml): Insoluble
Response 1 Solubility (Water/Phosphoric Acid/Ethanol (190 Proof)/RebA 33.13/0.00/66.26/0.60 ml): 1
Response 1 Solubility (Water/Phosphoric Acid/Ethanol (190 Proof)/RebA 33.13/33.13/33.13/0.60 ml): 1
Response 1 Solubility (Water/Phosphoric Acid/Ethanol (190 Proof)/RebA 33.13/66.26/0.00/0.60 ml): Insoluble
Response 1 Solubility (Water/Phosphoric Acid/Ethanol (190 Proof)/RebA 39.10/15.99/39.10/5.82 ml): 2
Response 1 Solubility (Water/Phosphoric Acid/Ethanol (190 Proof)/RebA 39.10/39.10/15.99/5.82 ml): Insoluble
Response 1 Solubility (Water/Phosphoric Acid/Ethanol (190 Proof)/RebA 47.96/0.00/47.96/4.08 ml): 1
Response 1 Solubility (Water/Phosphoric Acid/Ethanol (190 Proof)/RebA 47.96/47.96/0.00/4.08 ml): Insoluble
Response 1 Solubility (Water/Phosphoric Acid/Ethanol (190 Proof)/RebA 61.63/0.00/30.81/7.56 ml): 4
Response 1 Solubility (Water/Phosphoric Acid/Ethanol (190 Proof)/RebA 61.63/30.81/0.00/7.56 ml): Insoluble
Response 1 Solubility (Water/Phosphoric Acid/Ethanol (190 Proof)/RebA 62.21/15.99/15.99/5.82 ml): 5
Response 1 Solubility (Water/Phosphoric Acid/Ethanol (190 Proof)/RebA 66.26/0.00/33.13/0.60 ml): 1
